This passage reports T/C results from PubChem BioAssay AID330 (DTP/NCI, 2004).

The test concerns P388 leukemia ip, CD2F1 mice, survival T/C. Briefly: NCI In Vivo Anticancer Drug Screen. Data for tumor model P388 Leukemia (intraperitoneal) in CD2F1 (CDF1) mice. The settings on record: endpoint: median survival time, higher = longer survival. The essentials:
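Mice carrying the transplanted tumor received test compound or vehicle. Survival was recorded in each group, and the value is the treated-group measurement divided by that of the vehicle-treated control group.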

Where [1] appears, read: dose: 50.0 mg/kg/injection, schedule: Q01DX005 (ip), vehicle: Klucel (hydroxypropylcellulose) (HPC).
The mark [2] stands for this setting: dose: 100.0 mg/kg/injection, schedule: Q01DX001 (ip), vehicle: saline with Tween-80.
Where [3] appears, read: dose: 200.0 mg/kg/injection, schedule: Q01DX001 (ip), vehicle: saline with Tween-80.
Setting [4] is: dose: 400.0 mg/kg/injection, schedule: Q01DX001 (ip), vehicle: saline with Tween-80.
Where [5] appears, read: dose: 100.0 mg/kg/injection, schedule: Q01DX005 (ip), vehicle: Klucel (hydroxypropylcellulose) (HPC).
[6] abbreviates: dose: 100.0 mg/kg/injection, schedule: Q04DX002 (ip), vehicle: saline with Tween-80.
The mark [7] stands for this setting: dose: 200.0 mg/kg/injection, schedule: Q04DX002 (ip), vehicle: saline with Tween-80.
[8] abbreviates: dose: 50.0 mg/kg/injection, schedule: Q01DX005 (ip), vehicle: saline with Tween-80.
[9] abbreviates: dose: 100.0 mg/kg/injection, schedule: Q01DX005 (ip), vehicle: saline with Tween-80.
The mark [10] stands for this setting: dose: 200.0 mg/kg/injection, schedule: Q01DX005 (ip), vehicle: saline with Tween-80.
The mark [11] stands for this setting: dose: 60.0 mg/kg/injection, schedule: Q01DX005 (ip), vehicle: saline with Tween-80.
[12] abbreviates: dose: 120.0 mg/kg/injection, schedule: Q01DX005 (ip), vehicle: saline with Tween-80.

Several values for one entry are separate records, joined by “and”; a condition that tells them apart may be missing. Equal entries are not always repeated. Toxic doses and inconclusive results are not listed.

For `CC(C)N(C(C)C)p1n(C(C)(C)C)n1C(C)(C)C`, the T/C reads like this: (dose: 12.5 mg/kg/injection, schedule: Q01DX005 (ip), vehicle: Klucel (hydroxypropylcellulose) (HPC)) 108 % of control; (dose: 25.0 mg/kg/injection, schedule: Q01DX005 (ip), vehicle: Klucel (hydroxypropylcellulose) (HPC)) 117 % of control; under setting [1], 110 % of control.
In the case of `CCOC(=O)Nc1c2ccccc2c(NC(=O)OCC)c2ccccc12`, the T/C (dose: 50.0 mg/kg/injection, schedule: Q01DX001 (ip), vehicle: saline with Tween-80) was 105 % of control; the T/C under setting [2] is 100 % of control; the T/C under setting [3] is 102 % of control; the T/C under setting [4] was 96 % of control.
On to `CN(N=O)C(N)=O`, for which the T/C (dose: 5.0 mg/kg/injection, schedule: Q04DX003 (ip), vehicle: saline with Tween-80) was 104 % of control; the T/C (dose: 10.0 mg/kg/injection, schedule: Q04DX003 (ip), vehicle: saline with Tween-80) is 119 % of control; the T/C (dose: 12.5 mg/kg/injection, schedule: Q01DX009 (ip), vehicle: saline with Tween-80) was 159 % of control; the T/C (dose: 25.0 mg/kg/injection, schedule: Q01DX009 (ip), vehicle: saline with Tween-80) was 95 % of control; the T/C (dose: 25.0 mg/kg/injection, schedule: Q04DX003 (ip), vehicle: saline with Tween-80) was 177 % of control; the T/C (dose: 37.5 mg/kg/injection, schedule: Q04DX003 (ip), vehicle: saline with Tween-80) is 172 % of control. Also, the T/C (dose: 50.0 mg/kg/injection, schedule: Q04DX003 (ip), vehicle: saline with Tween-80) is 113 % of control.
Take `CC1NS(=O)(=O)c2ccccc2C1=O` (stereo not given): the T/C runs as follows: (dose: 100.0 mg/kg/injection, schedule: Q04DX003 (ip), vehicle: saline) 100 % of control; (dose: 200.0 mg/kg/injection, schedule: Q04DX003 (ip), vehicle: saline) 101 % of control; (dose: 400.0 mg/kg/injection, schedule: Q04DX003 (ip), vehicle: saline) 108 % of control.
In the case of `O=C(CCS(=O)O)c1ccccc1`, the T/C is 101 % of control (dose: 100.0 mg/kg/injection, schedule: Q04DX002 (ip), vehicle: saline); 100 % of control (dose: 200.0 mg/kg/injection, schedule: Q04DX002 (ip), vehicle: saline); 94 % of control (dose: 400.0 mg/kg/injection, schedule: Q04DX002 (ip), vehicle: saline).
Consider `CN(C)n1c(O)c(N=O)sc1=S`, for which the T/C reads like this: under setting [1], 96 % of control; under setting [5], 95 % of control.
`CN1C=C(c2ccccc2)C=C(c2ccccc2)C1S(=O)(=O)O` (stereo not given): the T/C runs as follows: (dose: 12.5 mg/kg/injection, schedule: Q01DX005 (ip), vehicle: saline + Tween-80 + alcohol) 99 % of control; (dose: 25.0 mg/kg/injection, schedule: Q01DX005 (ip), vehicle: saline + Tween-80 + alcohol) 96 % of control.
As for `COc1cc2c(c(OC)c1OC)-c1cccc(=O)cc1C(NC(C)=O)CC2` (stereo not given), the T/C by setting is: (dose: 1.25 mg/kg/injection, schedule: Q01DX009 (ip), vehicle: Klucel (hydroxypropylcellulose) (HPC)) 121 % of control; (dose: 2.5 mg/kg/injection, schedule: Q01DX005 (ip), vehicle: saline) 100 % of control; (dose: 5.0 mg/kg/injection, schedule: Q01DX005 (ip), vehicle: saline) 101 % of control; (dose: 5.0 mg/kg/injection, schedule: Q01DX009 (ip), vehicle: Klucel (hydroxypropylcellulose) (HPC)) 150 % of control and 155 % of control; (dose: 10.0 mg/kg/injection, schedule: Q01DX005 (ip), vehicle: saline) 104 % of control; (dose: 10.0 mg/kg/injection, schedule: Q01DX009 (ip), vehicle: Klucel (hydroxypropylcellulose) (HPC)) 176 % of control and 179 % of control. Besides, the T/C reads like this: (dose: 20.0 mg/kg/injection, schedule: Q01DX005 (ip), vehicle: saline) 99 % of control; (dose: 20.0 mg/kg/injection, schedule: Q01DX009 (ip), vehicle: Klucel (hydroxypropylcellulose) (HPC)) 233 % of control and 250 % of control; (dose: 40.0 mg/kg/injection, schedule: Q01DX005 (ip), vehicle: saline) 104 % of control.
Turning to `COc1ccc(/C=N\N=C(/[O-])c2ccc(Cl)cc2)cc1.COc1ccc(/C=N\N=C(/[O-])c2ccc(Cl)cc2)cc1.[Mn+2].[OH3+].[OH3+]`, the T/C is, setting by setting: (dose: 50.0 mg/kg/injection, schedule: Q04DX002 (ip), vehicle: saline with Tween-80) 102 % of control; under setting [6], 102 % of control; under setting [7], 104 % of control.
On to `C/C(=N\NC(=S)N1CCN(C2CCCCC2)CC1)c1ccccn1`, for which the T/C runs as follows: (dose: 1.56 mg/kg/injection, schedule: Q01DX005 (ip), vehicle: saline with Tween-80) 103 % of control; (dose: 3.13 mg/kg/injection, schedule: Q01DX005 (ip), vehicle: saline with Tween-80) 106 % of control; (dose: 6.25 mg/kg/injection, schedule: Q01DX005 (ip), vehicle: saline with Tween-80) 101 % of control and 87 % of control.
For `CCOc1c(N=Nc2ccccc2Cl)c(-c2ccccc2)nn1C(=S)S`, the T/C is, setting by setting: under setting [8], 105 % of control; under setting [9], 99 % of control.
With `CC(C)C[CH2][Pb]([Cl])([CH2]CC(C)C)[CH2]CC(C)C`, the T/C runs as follows: (dose: 0.06 mg/kg/injection, schedule: Q01DX009 (ip), vehicle: saline + alcohol) 103 % of control; (dose: 0.13 mg/kg/injection, schedule: Q01DX009 (ip), vehicle: saline + alcohol) 108 % of control; (dose: 0.25 mg/kg/injection, schedule: Q01DX009 (ip), vehicle: saline + alcohol) 105 % of control; (dose: 0.5 mg/kg/injection, schedule: Q01DX009 (ip), vehicle: saline + alcohol) 119 % of control; (dose: 1.0 mg/kg/injection, schedule: Q01DX009 (ip), vehicle: saline + alcohol) 118 % of control; (dose: 2.0 mg/kg/injection, schedule: Q01DX009 (ip), vehicle: saline) 111 % of control. The T/C reads like this: (dose: 4.0 mg/kg/injection, schedule: Q01DX009 (ip), vehicle: saline) 110 % of control; (dose: 8.0 mg/kg/injection, schedule: Q01DX009 (ip), vehicle: saline) 100 % of control.
In the case of `OC(ON=C1CCCCC1)c1ccc2c(c1)OCO2` (stereo not given), the T/C under setting [8] was 96 % of control, the T/C under setting [9] is 103 % of control and the T/C under setting [10] was 107 % of control.
In the case of `CC(C)(c1ccc(OCOC(=O)NN)cc1)c1ccc(OCOC(=O)NN)cc1`, the T/C reads like this: (dose: 50.0 mg/kg/injection, schedule: Q01DX009 (ip), vehicle: saline with Tween-80) 95 % of control; (dose: 100.0 mg/kg/injection, schedule: Q01DX009 (ip), vehicle: saline with Tween-80) 102 % of control.
On to `C=CCN(CC=C)CC(C)(O)CNc1cc(OC)cc2cccnc12` (stereo not given), for which the T/C (dose: 50.0 mg/kg/injection, schedule: Q01DX005 (ip), vehicle: saline) is 107 % of control and the T/C (dose: 100.0 mg/kg/injection, schedule: Q01DX005 (ip), vehicle: saline) is 101 % of control.
On to `C[C@]12CCNC(=O)C=C1CC[C@@H]1C2CC[C@@]2(C)C1CC[C@@H]2OC(=O)COc1ccc(N(CCCl)CCCl)cc1` (stereo not given in full), for which the T/C runs as follows: under setting [6], 159 % of control; under setting [7], 199 % of control; (dose: 400.0 mg/kg/injection, schedule: Q04DX002 (ip), vehicle: saline with Tween-80) 225 % of control.
In the case of `N#CC(C(=O)CCc1nc2ccccc2[nH]1)c1ccccc1Cl` (stereo not given), the T/C was 111 % of control under setting [11]; 105 % of control under setting [12]; 96 % of control (dose: 240.0 mg/kg/injection, schedule: Q01DX005 (ip), vehicle: saline with Tween-80).
As for `CC(=O)N(C(C)=O)c1cnc2c(nc3cc(C)ccn32)c1C`, the T/C was 92 % of control under setting [2] and 98 % of control under setting [3].
`CCN(CC)C(=O)c1c2nc3c(C(=O)N(CC)CC)ccc(C)c3oc-2c(C)c(=O)c1N`: the T/C runs as follows: under setting [11], 98 % of control; under setting [12], 88 % of control.
On to `C=C(F)F`, for which the T/C was 95 % of control under setting [1]; 101 % of control under setting [5]; 103 % of control (dose: 200.0 mg/kg/injection, schedule: Q01DX005 (ip), vehicle: Klucel (hydroxypropylcellulose) (HPC)).
For the compound `O=C1CN(c2cccc(C(F)(F)F)c2)C(=O)CN1/N=C/c1cccnc1`, the T/C under setting [8] was 94 % of control, the T/C under setting [9] was 97 % of control and the T/C under setting [10] is 94 % of control.
As to `O=C(N/N=C/c1cc(Cl)cc(Cl)c1[O-])c1ccccc1.O=C(N/N=C/c1cc(Cl)cc(Cl)c1[O-])c1ccccc1.[Cu+2]`, the T/C was 94 % of control under setting [2], 92 % of control under setting [3] and 104 % of control under setting [4].
